Source: PMC5531494, “Target specificity, in vivo pharmacokinetics, and efficacy of the putative STAT3 inhibitor LY5 in osteosarcoma, Ewing's sarcoma, and rhabdomyosarcoma” (PLoS ONE, 2017)

Tests used:
[1] = Liver microsomal stability; type: in vitro ADME, canine; details: compared to mice; data not shown
Source text: The liquid chromatography-mass spectrometry system utilized for these analyses consisted of a Dionex Ultimate 3000 RSLCnano High Performance Liquid Chromatography system and a Thermo Finnigan Quantum Ultras EMR mass spectrometer with an electrospray ionization source. Positive ionization mode was used for both LY5 and the internal standard, hesperetin. Plasma samples were collected and analyzed by the OSU James Comprehensive Cancer Center Pharmacoanalytical Shared Resource. Pharsight Phoenix WinNonlin software using non-compartmental analysis was used to generate PK parameters including maximum plasma concentration (Cmax), amount of time that drug is present at Cmax (Tmax), and total area under the curve (AUC). AUC all and AUC last were calculated by linear trapezoidal method of concentration-time curve up to the last measured point. AUC inf-obs was calculated by log-linear extrapolation of the terminal phase beyond the last collection time. Bioavailability (F) was calculated for IP and PO administration routes. Plasma stability and liver microsomal stability of LY5 were also assessed through this shared resource.

[2] = tested on: RH10, RH36, OS-17 and OS-1; experiment: Subcutaneous PDX models of RMS and OS, overall; type: in vivo, mice; details: subcutaneous PDX models RH10, RH36, OS-17, OS-1
Procedure: C.B-17SC scid^-/- female mice (Taconic Farms, Germantown NY), were used to propagate subcutaneously implanted tumors. All mice were maintained under barrier conditions and experiments were conducted using protocols and conditions approved by the institutional animal care and use committee at University of Texas Health Science Center at San Antonio. Ten mice were used in each control or treatment group. Tumor volumes (cm^3) were determined and responses were determined using three activity measures as previously described.
(§1) To further examine the efficacy of LY5, we administered LY5 using subcutaneous PDX models of RMS (RH10 and RH36) and OS (OS-17 and OS-1). RH10, RH36 and OS-1 were derived from tissue explants, therefore no corresponding cell lines exist. Tumors were harvested 2 hrs after final drug administration. […] In addition, STAT3 phosphorylation was not observed in control or treated tumor derived from OS-17, and inhibition of STAT3 phosphorylation was not observed in OS-1 PDX models treated with 40 mg/kg twice daily.

OS-17-luc cells = experiment: Murine model of OS pulmonary metastasis, bioluminescent imaging; type: in vivo, mice; details: 20 mg/kg LY5 daily oral gavage for 30 days, vs vehicle
Procedure: The ability of LY5 to inhibit pulmonary metastases was evaluated using a murine model of OS pulmonary metastasis. 8-week-old C.B-17 scid -/- female mice (Envigo, Madison, WI) received IV inoculation with 10^6 OS-17-luc cells expressing a luciferase reporter gene. OS-17-luc cells were generated by infecting OS-17 wild type cells with lentivirus containing the firefly luciferase under a CMV promoter (Cellomics Technology, Hallethorpe, MD) and selected with 0.5 ug/mL puromycin (Thermo Fisher Scientific, Waltham, MA). Beginning 24 hrs after inoculation, mice received vehicle (n = 10) or 20 mg/kg LY5 once daily via oral gavage (n = 9, one mouse died within 24 hrs after cell inoculation). LY5 was prepared by diluting a 40 mg/mL solution/slurry with a 50% propylene glycol/1% Tween 20 in water vehicle immediately before administration. Mice were treated with LY5 for 30 days, and bioluminescent imaging (after IP luciferin administration) was performed to determine pulmonary metastatic disease load. To investigate the pharmacodynamics (PD) effects of LY5, pSTAT3 (p-Tyr705, ab76315, Abcam) and total STAT3 (ab119352, Abcam) were evaluated in pulmonary metastatic lesions using IHC in lung samples from mice euthanized 24 hrs after their last dose.
(A-B) IHC staining of lung metastasis from mice treated with LY5. The metastatic tumor sections were stained with pSTAT3 or hematoxylin and eosin. […]

STAT3 = STAT3 (Homo sapiens, UniProt P40763); experiment: STAT3 phosphorylation in OS-1 PDX tumors; type: in vivo, mice; design: from tissue; host or cells: OS-17-luc lung metastases and OS-1 subcutaneous PDX tumours in C.B-17 scid mice; details: 40 mg/kg twice daily, tumors harvested 2 hrs after final drug administration
Procedure: as §1

STAT6 = molecular target: T1, STAT6 (Homo sapiens, UniProt P42226); experiment: Cytokine-induced STAT6 phosphorylation in SJSA cells, Western blot; type: cell-based; details: induced by IFN-γ, IFN-α, or IL-4
T1 construct: endogenous in cells; host or cells: SJSA
Procedure: Cell lysis, protein isolation and immunoblotting were performed as described previously. Twenty micrograms of protein were resolved using 4–12% Bis-Tris polyacrylamide gels. Gels were transferred to PVDF membranes and subjected to blocking and incubation with primary and secondary antibodies. The primary antibodies used in this study included: phospho-STAT3 (Tyr705, Cell Signaling, Boston, MA and Abcam, Cambridge, MA), total STAT3 (Cell Signaling and Abcam), phospho-STAT1 (Cell Signaling), total STAT1 (Cell Signaling), phospho-STAT2 (Cell Signaling), phospho-STAT4 (Cell Signaling), phospho-STAT6 (Cell Signaling), and GAPDH (Cell Signaling). Protein bands were detected using Western Lightning ® Plus Enhanced Chemiluminescence substrate (Perkin Elmer, Waltham, MA) and HyBlot CL ® Autoradiography film (Denville Scientific, Holliston, MA). The cytokines used in this study included: interferon gamma (IFN-γ, Cell Signaling), interferon alpha (IFN-α, Cell Signaling), interleukin-4 (IL-4, Cell Signaling), interleukin-6 (IL-6, Cell Signaling), and oncostatin M (OSM, Cell Signaling).
Fig 1 LY5 inhibits pSTAT3 in sarcoma cell lines. (A) The tumor cell lines RH30, EW8, and RD were treated with increasing concentrations of LY5 for 30 minutes. Cell lysates were collected for Western blotting of p-STAT3, total STAT3, and GAPDH. GAPDH was used as loading control. […]

T1 sequence (P42226 whole entry): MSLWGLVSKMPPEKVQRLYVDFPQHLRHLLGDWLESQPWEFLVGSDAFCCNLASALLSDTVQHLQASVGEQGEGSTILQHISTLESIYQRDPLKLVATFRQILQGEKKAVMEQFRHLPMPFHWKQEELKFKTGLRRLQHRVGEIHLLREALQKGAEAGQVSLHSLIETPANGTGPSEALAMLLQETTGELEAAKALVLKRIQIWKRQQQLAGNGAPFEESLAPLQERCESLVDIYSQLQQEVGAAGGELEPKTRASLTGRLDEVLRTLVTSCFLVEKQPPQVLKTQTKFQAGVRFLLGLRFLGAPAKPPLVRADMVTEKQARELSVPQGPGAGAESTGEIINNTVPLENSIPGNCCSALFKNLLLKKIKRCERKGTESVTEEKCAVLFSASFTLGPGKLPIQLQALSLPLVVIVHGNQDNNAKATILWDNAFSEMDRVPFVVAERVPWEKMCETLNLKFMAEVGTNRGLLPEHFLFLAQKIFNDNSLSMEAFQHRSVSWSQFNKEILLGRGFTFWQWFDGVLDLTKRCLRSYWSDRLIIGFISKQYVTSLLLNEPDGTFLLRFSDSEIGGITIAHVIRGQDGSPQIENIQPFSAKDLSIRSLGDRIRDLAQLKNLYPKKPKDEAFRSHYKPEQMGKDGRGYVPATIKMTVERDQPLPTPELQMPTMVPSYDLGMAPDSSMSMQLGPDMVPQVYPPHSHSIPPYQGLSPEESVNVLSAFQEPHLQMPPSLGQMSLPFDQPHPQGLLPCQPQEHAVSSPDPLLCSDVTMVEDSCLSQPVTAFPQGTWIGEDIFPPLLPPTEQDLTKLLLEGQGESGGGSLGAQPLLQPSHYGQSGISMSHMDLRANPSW
Chain of STAT3 (P40763 whole entry): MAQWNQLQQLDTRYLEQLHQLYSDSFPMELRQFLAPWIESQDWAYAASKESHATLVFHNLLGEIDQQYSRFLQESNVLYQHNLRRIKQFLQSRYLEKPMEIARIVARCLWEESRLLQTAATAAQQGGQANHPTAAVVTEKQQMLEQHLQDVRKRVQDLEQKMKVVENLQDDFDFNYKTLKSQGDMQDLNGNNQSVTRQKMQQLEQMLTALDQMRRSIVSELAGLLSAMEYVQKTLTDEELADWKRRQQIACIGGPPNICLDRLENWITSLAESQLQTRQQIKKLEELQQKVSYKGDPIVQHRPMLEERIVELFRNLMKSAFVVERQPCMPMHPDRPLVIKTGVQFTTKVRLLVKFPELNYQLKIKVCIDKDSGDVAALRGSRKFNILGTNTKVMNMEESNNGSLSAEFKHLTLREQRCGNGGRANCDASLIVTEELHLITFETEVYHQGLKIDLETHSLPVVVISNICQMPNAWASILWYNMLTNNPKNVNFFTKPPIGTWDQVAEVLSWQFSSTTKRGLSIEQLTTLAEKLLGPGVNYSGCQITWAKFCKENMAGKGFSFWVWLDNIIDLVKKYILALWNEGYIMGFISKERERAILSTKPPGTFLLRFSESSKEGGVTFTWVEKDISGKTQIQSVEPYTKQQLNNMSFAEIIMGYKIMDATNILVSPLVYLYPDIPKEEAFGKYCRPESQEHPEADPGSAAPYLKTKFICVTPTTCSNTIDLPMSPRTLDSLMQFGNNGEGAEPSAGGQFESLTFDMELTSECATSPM

Compound: NS(=O)(=O)c1cccc2c1C(=O)C=C(Nc1cccnc1)C2=O [LY5, 5,8-dioxo-6-(pyridin-3-ylamino)-5,8-dihydronaphthalene-1-sulfonamide]
- stability when incubated with canine liver microsomes [1]: increased stability
- PDX growth compared to control [2]: did not decrease PDX growth
- development of pulmonary metastatic lesions (luciferase expression) (OS-17-luc cells): no difference
- inhibition of STAT3 phosphorylation in tumors (STAT3): not observed
- phosphorylation of STAT6 (STAT6): did not inhibit
